# Columns and labels:
# Experiment in all cases: Test E greenhouse herbicide test, pre- and postemergence
# Format in all cases: in vivo
# [1] = tested on: Italian ryegrass (Lolium multiflorum)
# How it was run: (§1)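 Visual rating vs untreated controls, 0 = no effect, 100 = complete control, after 14–21 d greenhouse. Pre: seeded silt loam treated with surfactant-containing solvent formulation. Post: 1–4-leaf plants (2–18 cm) in peat/vermiculite medium.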
# [2] = tested on: beggarticks (hairy beggarticks, Bidens pilosa)
# How it was run: as §1
# [3] = tested on: crabgrass, large (large crabgrass, Digitaria sanguinalis); settings: Preemergence
# How it was run: as §1
# [4] = tested on: foxtail, giant (giant foxtail, Setaria faberii); settings: Preemergence
# How it was run: as §1
# [5] = tested on: johnsongrass (Sorghum halepense); settings: Preemergence
# How it was run: as §1
# kochia (Kochia scoparia) = tested on: kochia (Kochia scoparia)
# How it was run: as §1
# [6] = tested on: momingglory (Ipomoea coccinea); settings: Preemergence
# How it was run: as §1
# [7] = tested on: nutsedge, yellow (yellow nutsedge, Cyperus esculentus); settings: Preemergence
# How it was run: as §1
# [8] = tested on: sandbur (southem sandbur, Cenchrus echinatus)
# How it was run: as §1
# [9] = tested on: velvetleaf (Abutilon theophrasti); settings: Preemergence
# How it was run: as §1
# [10] = tested on: waterhemp (common waterhemp, Amaranthus rudis)
# How it was run: as §1
# [11] = 62 g ai/ha, Postemergence, scale 0 to 100 (0 no effect, 100 complete control)
# [12] = 62 g ai/ha, Preemergence, scale 0 to 100 (0 no effect, 100 complete control)
# [13] = 125 g ai/ha, Postemergence, scale 0 to 100 (0 no effect, 100 complete control)
# [14] = 125 g ai/ha, Preemergence, scale 0 to 100 (0 no effect, 100 complete control)
# [15] = 250 g ai/ha, Postemergence, scale 0 to 100 (0 no effect, 100 complete control)
# [16] = Postemergence, 16 g ai/ha, visual, scale 0 no effect to 100 complete control
# [17] = Postemergence, 31 g ai/ha, visual, scale 0 no effect to 100 complete control
# [18] = Preemergence, 16 g ai/ha, scale 0 to 100, 0 no effect, 100 complete control
# [19] = Preemergence, 31 g ai/ha, scale 0 to 100, 0 no effect, 100 complete control
# [20] = Preemergence, 250 g ai/ha, visual, scale 0 no effect to 100 complete control
# [21] = Preemergence, 125 g ai/ha, visual, scale 0 no effect to 100 complete control
# [22] = 62 g ai/ha, scale 0 to 100 (0 no effect, 100 complete control)
# [23] = 16 g ai/ha, scale 0 to 100, 0 no effect, 100 complete control
# [24] = 31 g ai/ha, scale 0 to 100, 0 no effect, 100 complete control
# [25] = 125 g ai/ha, visual, scale 0 no effect to 100 complete control
# [26] = 250 g ai/ha, visual, scale 0 no effect to 100 complete control
# [27] = 125 g ai/ha, scale 0 to 100 (0 no effect, 100 complete control)
structure (smiles),measurement,setting,value
"Cc1ccc2sc(C)c(-c3c(O)c(C)nn(C)c3=O)c2c1 [Compound 1, 4-(2,5-dimethylbenzo[b]thien-3-yl)-5-hydroxy-2,6-dimethyl-3(2H)-pyridazinone]","Plant response rating, Ryegrass, Italian",[1]; [11],50
same,"Plant response rating, Ryegrass, Italian",[1]; [12],100
same,"Plant response rating, Ryegrass, Italian",[1]; [13],65
same,"Plant response rating, Ryegrass, Italian",[1]; [14],100
same,"Plant response rating, Ryegrass, Italian",[1]; [15],90
same,"Plant response rating, Ryegrass, Italian",[1]; [16],20
same,"Plant response rating, Ryegrass, Italian",[1]; [17],35
same,"Plant response rating, Ryegrass, Italian",[1]; [18],70
same,"Plant response rating, Ryegrass, Italian",[1]; [19],95
same,"Plant response rating, Ryegrass, Italian",[1]; [20],100
same,"Plant response rating, Beggarticks",[2]; [11],98
same,"Plant response rating, Beggarticks",[2]; [12],100
same,"Plant response rating, Beggarticks",[2]; [13],100
same,"Plant response rating, Beggarticks",[2]; [15],100
same,"Plant response rating, Beggarticks",[2]; [16],70
same,"Plant response rating, Beggarticks",[2]; [17],85
same,"Plant response rating, Beggarticks",[2]; [18],100
same,"Plant response rating, Beggarticks",[2]; [19],100
same,"Plant response rating, Beggarticks",[2]; [21],100
same,"Plant response rating, Beggarticks",[2]; [20],100
same,"Plant response rating, Crabgrass, Large",[3]; [22],20
same,"Plant response rating, Crabgrass, Large",[3]; [23],0
same,"Plant response rating, Crabgrass, Large",[3]; [24],0
same,"Plant response rating, Crabgrass, Large",[3]; [25],35
same,"Plant response rating, Crabgrass, Large",[3]; [26],65
same,"Plant response rating, Foxtail, Giant",[4]; [22],35
same,"Plant response rating, Foxtail, Giant",[4]; [23],0
same,"Plant response rating, Foxtail, Giant",[4]; [24],50
same,"Plant response rating, Foxtail, Giant",[4]; [25],95
same,"Plant response rating, Foxtail, Giant",[4]; [26],98
same,"Plant response rating, Johnsongrass",[5]; [22],0
same,"Plant response rating, Johnsongrass",[5]; [23],0
same,"Plant response rating, Johnsongrass",[5]; [24],0
same,"Plant response rating, Johnsongrass",[5]; [25],30
same,"Plant response rating, Johnsongrass",[5]; [26],40
same,"Plant response rating, Kochia",kochia (Kochia scoparia); [12],5
same,"Plant response rating, Kochia",kochia (Kochia scoparia); [18],0
same,"Plant response rating, Kochia",kochia (Kochia scoparia); [19],0
same,"Plant response rating, Kochia",kochia (Kochia scoparia); [21],35
same,"Plant response rating, Kochia",kochia (Kochia scoparia); [20],85
same,"Plant response rating, Morningglory",[6]; [22],98
same,"Plant response rating, Morningglory",[6]; [27],90
same,"Plant response rating, Morningglory",[6]; [23],20
same,"Plant response rating, Morningglory",[6]; [24],60
same,"Plant response rating, Morningglory",[6]; [26],100
same,"Plant response rating, Nutsedge, Yellow",[7]; [22],15
same,"Plant response rating, Nutsedge, Yellow",[7]; [27],50
same,"Plant response rating, Nutsedge, Yellow",[7]; [23],0
same,"Plant response rating, Nutsedge, Yellow",[7]; [24],10
same,"Plant response rating, Nutsedge, Yellow",[7]; [26],70
same,"Plant response rating, Sandbur",[8]; [11],30
same,"Plant response rating, Sandbur",[8]; [12],20
same,"Plant response rating, Sandbur",[8]; [13],30
same,"Plant response rating, Sandbur",[8]; [14],70
same,"Plant response rating, Sandbur",[8]; [15],30
same,"Plant response rating, Sandbur",[8]; [16],0
same,"Plant response rating, Sandbur",[8]; [17],10
same,"Plant response rating, Sandbur",[8]; [18],0
same,"Plant response rating, Sandbur",[8]; [19],10
same,"Plant response rating, Sandbur",[8]; [20],70
same,"Plant response rating, Velvetleaf",[9]; [22],75
same,"Plant response rating, Velvetleaf",[9]; [27],90
same,"Plant response rating, Velvetleaf",[9]; [23],35
same,"Plant response rating, Velvetleaf",[9]; [24],75
same,"Plant response rating, Velvetleaf",[9]; [26],98
same,"Plant response rating, Waterhemp",[10]; [11],95
same,"Plant response rating, Waterhemp",[10]; [12],100
same,"Plant response rating, Waterhemp",[10]; [13],98
same,"Plant response rating, Waterhemp",[10]; [14],100
same,"Plant response rating, Waterhemp",[10]; [15],100
same,"Plant response rating, Waterhemp",[10]; [16],70
same,"Plant response rating, Waterhemp",[10]; [17],85
same,"Plant response rating, Waterhemp",[10]; [18],35
same,"Plant response rating, Waterhemp",[10]; [19],90
same,"Plant response rating, Waterhemp",[10]; [20],100
CCC(=O)Oc1c(C)nn(C)c(=O)c1-c1c(C)sc2ccc(C)cc12 [Compound 42],"Plant response rating, Ryegrass, Italian",[1]; [11],70
same,"Plant response rating, Ryegrass, Italian",[1]; [13],85
same,"Plant response rating, Ryegrass, Italian",[1]; [15],90
same,"Plant response rating, Ryegrass, Italian",[1]; [17],50
same,"Plant response rating, Beggarticks",[2]; [11],95
same,"Plant response rating, Beggarticks",[2]; [13],100
same,"Plant response rating, Beggarticks",[2]; [15],100
same,"Plant response rating, Beggarticks",[2]; [17],95
same,"Plant response rating, Kochia",kochia (Kochia scoparia); [11],85
same,"Plant response rating, Kochia",kochia (Kochia scoparia); [13],95
same,"Plant response rating, Kochia",kochia (Kochia scoparia); [15],98
same,"Plant response rating, Kochia",kochia (Kochia scoparia); [17],75
same,"Plant response rating, Sandbur",[8]; [11],50
same,"Plant response rating, Sandbur",[8]; [13],60
same,"Plant response rating, Sandbur",[8]; [15],60
same,"Plant response rating, Sandbur",[8]; [17],35
same,"Plant response rating, Waterhemp",[10]; [11],80
same,"Plant response rating, Waterhemp",[10]; [13],100
same,"Plant response rating, Waterhemp",[10]; [15],90
same,"Plant response rating, Waterhemp",[10]; [17],75
CC(=O)Oc1c(C)nn(C)c(=O)c1-c1ccc(F)c2ccccc12 [Compound 90],"Plant response rating, Ryegrass, Italian",[1]; [11],85
same,"Plant response rating, Ryegrass, Italian",[1]; [13],85
same,"Plant response rating, Ryegrass, Italian",[1]; [16],75
same,"Plant response rating, Ryegrass, Italian",[1]; [17],80
same,"Plant response rating, Beggarticks",[2]; [11],98
same,"Plant response rating, Beggarticks",[2]; [13],100
same,"Plant response rating, Beggarticks",[2]; [16],85
same,"Plant response rating, Beggarticks",[2]; [17],90
same,"Plant response rating, Kochia",kochia (Kochia scoparia); [11],95
same,"Plant response rating, Kochia",kochia (Kochia scoparia); [13],100
same,"Plant response rating, Kochia",kochia (Kochia scoparia); [16],90
same,"Plant response rating, Kochia",kochia (Kochia scoparia); [17],90
same,"Plant response rating, Sandbur",[8]; [13],50
same,"Plant response rating, Sandbur",[8]; [16],40
same,"Plant response rating, Sandbur",[8]; [17],40
same,"Plant response rating, Waterhemp",[10]; [13],90
same,"Plant response rating, Waterhemp",[10]; [16],50
same,"Plant response rating, Waterhemp",[10]; [17],70
COc1nn(C)c(=O)c(-c2c(C)sc3ccc(Cl)cc23)c1O [Compound 100],"Plant response rating, Ryegrass, Italian",[1]; [11],60
same,"Plant response rating, Ryegrass, Italian",[1]; [13],70
same,"Plant response rating, Ryegrass, Italian",[1]; [15],85
same,"Plant response rating, Ryegrass, Italian",[1]; [17],50
same,"Plant response rating, Beggarticks",[2]; [11],80
same,"Plant response rating, Beggarticks",[2]; [13],90
same,"Plant response rating, Beggarticks",[2]; [15],100
same,"Plant response rating, Beggarticks",[2]; [17],75
same,"Plant response rating, Kochia",kochia (Kochia scoparia); [11],80
same,"Plant response rating, Kochia",kochia (Kochia scoparia); [13],80
same,"Plant response rating, Kochia",kochia (Kochia scoparia); [15],100
same,"Plant response rating, Kochia",kochia (Kochia scoparia); [17],60
same,"Plant response rating, Sandbur",[8]; [13],40
same,"Plant response rating, Sandbur",[8]; [15],50
same,"Plant response rating, Sandbur",[8]; [17],20
same,"Plant response rating, Waterhemp",[10]; [15],90
same,"Plant response rating, Waterhemp",[10]; [17],80
CSCC(=O)Oc1c(C)nn(C)c(=O)c1-c1cccc2ccccc12 [Compound 171],"Plant response rating, Ryegrass, Italian",[1]; [11],75
same,"Plant response rating, Ryegrass, Italian",[1]; [13],85
same,"Plant response rating, Ryegrass, Italian",[1]; [15],90
same,"Plant response rating, Ryegrass, Italian",[1]; [17],65
same,"Plant response rating, Beggarticks",[2]; [11],95
same,"Plant response rating, Beggarticks",[2]; [13],100
same,"Plant response rating, Beggarticks",[2]; [15],100
same,"Plant response rating, Beggarticks",[2]; [17],80
same,"Plant response rating, Kochia",kochia (Kochia scoparia); [11],95
same,"Plant response rating, Kochia",kochia (Kochia scoparia); [13],100
same,"Plant response rating, Kochia",kochia (Kochia scoparia); [15],100
same,"Plant response rating, Kochia",kochia (Kochia scoparia); [17],90
same,"Plant response rating, Sandbur",[8]; [13],50
same,"Plant response rating, Sandbur",[8]; [15],60
same,"Plant response rating, Sandbur",[8]; [17],30
same,"Plant response rating, Waterhemp",[10]; [13],85
same,"Plant response rating, Waterhemp",[10]; [15],90
same,"Plant response rating, Waterhemp",[10]; [17],80

# From patent US10597388B2, “Pyridazinone herbicides” (FMC CORPORATION, priority 2014, dated 2020)
